Source: patent US20260132129A1 (Genesis Therapeutics, Inc., priority 2022, published 2026)

Biological target: T1, PI3Kα H1047R (T47D cells) (Homo sapiens, UniProt P42336, H1047R)
T1 construct: endogenous in cells; host or cells: T47D cells
Experiment: PI3Kα cellular assay: pAKT HTRF in T47D cells after EGF stimulation
Format: cell-based
Conditions: for IC50: T47D cells (PI3Kα H1047R), pAKT S473 HTRF, EGF stimulation
How it was run: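 T47D cells (PIK3CA H1047R) serum-starved 16 h, then treated 1 h at 37 °C with compound (10,000 nM top, 3-fold steps to 0.5 nM). After 10 min stimulation with 20 ng/mL EGF, cells were lysed and pAKT measured by HTRF.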

T1 sequence (P42336 whole entry H1047R): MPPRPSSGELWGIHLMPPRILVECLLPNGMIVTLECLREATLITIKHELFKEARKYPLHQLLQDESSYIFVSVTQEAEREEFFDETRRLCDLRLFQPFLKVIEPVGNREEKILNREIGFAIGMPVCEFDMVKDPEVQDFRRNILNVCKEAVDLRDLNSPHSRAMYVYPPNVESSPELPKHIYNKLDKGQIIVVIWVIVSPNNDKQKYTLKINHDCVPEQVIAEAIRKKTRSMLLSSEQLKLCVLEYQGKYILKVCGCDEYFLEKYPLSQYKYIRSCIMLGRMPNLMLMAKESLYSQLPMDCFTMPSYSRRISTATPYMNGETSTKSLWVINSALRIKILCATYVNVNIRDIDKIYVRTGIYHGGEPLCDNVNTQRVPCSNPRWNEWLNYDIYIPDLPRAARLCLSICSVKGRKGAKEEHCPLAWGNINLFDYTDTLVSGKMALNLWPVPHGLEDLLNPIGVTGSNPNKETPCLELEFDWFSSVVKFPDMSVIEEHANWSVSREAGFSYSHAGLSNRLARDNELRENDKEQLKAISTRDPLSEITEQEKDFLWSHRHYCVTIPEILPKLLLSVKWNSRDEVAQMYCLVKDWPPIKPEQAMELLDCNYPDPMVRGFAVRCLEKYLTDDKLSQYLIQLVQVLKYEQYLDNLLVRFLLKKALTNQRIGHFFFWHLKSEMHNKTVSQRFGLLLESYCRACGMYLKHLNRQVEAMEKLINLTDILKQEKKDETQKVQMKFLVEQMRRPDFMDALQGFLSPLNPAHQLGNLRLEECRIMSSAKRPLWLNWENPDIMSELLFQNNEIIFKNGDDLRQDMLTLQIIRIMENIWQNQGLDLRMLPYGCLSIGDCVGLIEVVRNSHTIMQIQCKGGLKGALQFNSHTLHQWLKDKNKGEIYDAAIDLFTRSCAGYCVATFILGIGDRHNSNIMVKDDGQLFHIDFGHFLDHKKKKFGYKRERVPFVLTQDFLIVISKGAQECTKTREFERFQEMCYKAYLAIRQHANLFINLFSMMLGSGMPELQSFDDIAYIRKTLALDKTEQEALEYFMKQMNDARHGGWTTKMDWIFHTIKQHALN
T1 sequence (P27986 whole entry partner): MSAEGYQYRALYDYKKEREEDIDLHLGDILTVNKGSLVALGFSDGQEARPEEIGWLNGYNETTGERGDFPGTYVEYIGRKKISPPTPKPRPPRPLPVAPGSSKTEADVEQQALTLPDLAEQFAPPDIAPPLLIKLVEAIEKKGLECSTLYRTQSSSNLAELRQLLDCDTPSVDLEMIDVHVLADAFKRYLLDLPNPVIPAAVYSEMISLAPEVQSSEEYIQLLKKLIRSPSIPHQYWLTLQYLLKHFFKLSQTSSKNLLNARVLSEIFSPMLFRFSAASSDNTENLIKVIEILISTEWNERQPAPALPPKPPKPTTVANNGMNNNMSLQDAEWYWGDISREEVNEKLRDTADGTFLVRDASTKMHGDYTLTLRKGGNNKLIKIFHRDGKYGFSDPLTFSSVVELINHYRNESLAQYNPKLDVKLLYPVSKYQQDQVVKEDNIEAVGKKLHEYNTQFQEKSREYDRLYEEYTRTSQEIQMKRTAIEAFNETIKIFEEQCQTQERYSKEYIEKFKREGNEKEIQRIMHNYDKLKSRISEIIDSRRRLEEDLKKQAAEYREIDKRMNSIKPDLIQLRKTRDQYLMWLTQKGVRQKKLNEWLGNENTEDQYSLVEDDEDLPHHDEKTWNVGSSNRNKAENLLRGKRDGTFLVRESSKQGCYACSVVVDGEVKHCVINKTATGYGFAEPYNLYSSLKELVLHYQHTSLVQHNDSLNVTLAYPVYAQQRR

SMILES | IC50 [µM] | T47D pAKT S473 HTRF IC50 (H1047R): T47D (H1047R) selectivity over SKBR3 (WT)
Cc1cc([C@@H](C)Oc2ccccc2C(=O)O)c2nc(-c3cccc(F)c3)c(C)c(=O)n2c1 [Compound 1372] | > 2 | C (C denotes ≤5-fold)
Cc1cc([C@H](C)Oc2ccccc2C(=O)O)c2nc(-c3cccc(F)c3)c(C)c(=O)n2c1 [Compound 1373] | > 2 | C (C denotes ≤5-fold)
Cc1cc(C(C)Nc2cccc3onc(O)c23)c2nc(-c3cccc(F)c3)c(C)c(=O)n2c1 (centres unmarked) [Compound 1375] | > 2 | C (C denotes ≤5-fold)
Cc1cc(C(C)Oc2ccccc2C2(O)CS(=O)(=O)C2)c2nc(-c3cccc(F)c3)c(C)c(=O)n2c1 (centres unmarked) [Compound 1382] | – | A (A denotes >20-fold)
Cc1cc(C(C)Nc2ccccc2C2(O)COC2)c2nc(-c3cccc(F)c3)c(C)c(=O)n2c1 (centres unmarked) [Compound 1389, 2-(3-fluorophenyl)-9-(1-((2-(3-hydroxyoxetan-3-yl)phenyl)amino)ethyl)-3,7-dimethyl-4H-pyrido[1,2-a]pyrimidin-4-one] | 0.5 to 2 | B (B denotes 20-fold≥value>5-fold)
Cc1cc([C@@H](C)Oc2ccccc2C2(O)CS(=O)(=O)C2)c2nc(-c3cccc(F)c3)c(C)c(=O)n2c1 [Compound 1392] | > 2 | C (C denotes ≤5-fold)
Cc1cc([C@@H](C)Nc2ccccc2C2(O)COC2)c2nc(-c3cccc(F)c3)c(C)c(=O)n2c1 [Compound 1399] | 0.1 to 0.5 | A (A denotes >20-fold)
Cc1cc([C@H](C)Nc2cccc3onc(O)c23)c2nc(-c3ccccc3)c(C)c(=O)n2c1 [Compound 1403] | – | C (C denotes ≤5-fold)
Cc1cc([C@H](C)Nc2ccccc2-c2ccnnc2)c2cc([C@H]3CCCOC3)c(C)c(=O)n2c1 [Compound 1406] | – | A (A denotes >20-fold)
Cc1cc([C@H](C)Nc2ccccc2-c2ccnnc2)c2nc([C@@H]3CCCOC3)c(C)c(=O)n2c1 [Compound 1407] | < 0.1 | A (A denotes >20-fold)
Cc1cc(C(C)Nc2ccccc2C(=O)O)c2nc(-c3ccncc3)c(C)c(=O)n2c1 (centres unmarked) [Compound 1408, 2-((1-(3,7-dimethyl-4-oxo-2-(pyridin-4-yl)-4H-pyrido[1,2-a]pyrimidin-9-yl)ethyl)amino)benzoic acid] | < 0.1 | A (A denotes >20-fold)
Cc1cc(C(C)Nc2ccsc2-c2ccnnc2)c2nc(N3Cc4ccccc4C3)c(C)c(=O)n2c1 (centres unmarked) [Compound 1409, 2-(isoindolin-2-yl)-3,7-dimethyl-9-(1-((2-(pyridazin-4-yl)thiophen-3-yl)amino)ethyl)-4H-pyrido[1,2-a]pyrimidin-4-one] | 0.1 to 0.5 | A (A denotes >20-fold)
Cc1cc(C(C)Nc2ccccc2C(=O)O)c2nc(-c3cnc4c(c3)c(C)c(C)n4C)c(C)c(=O)n2c1 (centres unmarked) [Compound 1410, 2-((1-(3,7-dimethyl-4-oxo-2-(1,2,3-trimethyl-1H-pyrrolo[2,3-b]pyridin-5-yl)-4H-pyrido[1,2-a]pyrimidin-9-yl)ethyl)amino)benzoic acid] | < 0.1 | A (A denotes >20-fold)
Cc1cc(C(C)Nc2ccccc2C(=O)O)c2nc(-c3cnc4c(c3)c(C)nn4C)c(C)c(=O)n2c1 (centres unmarked) [Compound 1411, 2-((1-(2-(1,3-dimethyl-1H-pyrazolo[3,4-b]pyridin-5-yl)-3,7-dimethyl-4-oxo-4H-pyrido[1,2-a]pyrimidin-9-yl)ethyl)amino)benzoic acid] | < 0.1 | A (A denotes >20-fold)
Cc1cc(C(C)Nc2ccccc2C(=O)O)c2nc(N3Cc4ccccc4C3)c(C)c(=O)n2c1.O=C(O)C(F)(F)F (centres unmarked) [Compound 1412, 2-((1-(2-(isoindolin-2-yl)-3,7-dimethyl-4-oxo-4H-pyrido[1,2-a]pyrimidin-9-yl)ethyl)amino)benzoic acid trifluoroacetate] | < 0.1 | A (A denotes >20-fold)
Cc1cc(C(C)Nc2ccccc2C(=O)O)c2nc(-c3cc(C)c4oc(=O)[nH]c4c3)cc(=O)n2c1 (centres unmarked) [Compound 1413, 2-((1-(7-methyl-2-(7-methyl-2-oxo-2,3-dihydrobenzo[d]oxazol-5-yl)-4-oxo-4H-pyrido[1,2-a]pyrimidin-9-yl)ethyl)amino)benzoic acid] | 0.1 to 0.5 | A (A denotes >20-fold)
